# From patent publication US20260167623A1 (NIKANG THERAPEUTICS, INC., priority 2022, published 2026)
# Target: T1, CDK2 (Homo sapiens, UniProt P24941)
# T1 construct: High-Throughput Measurement of Cellular Endogenous CDK2; endogenous in cells; host or cells: OVCAR3
# Test: Inhibition of CDK2: phospho-Rb (S807/811) HTRF measurement in OVCAR3 cells, 24 h
# Type: cell-based
# Details: 24 h compound treatment, read-out: pRB_OVCAR3_24h
# Outline: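 OVCAR3 cells, seeded overnight, were exposed to compounds at 0.3 to 10,000 nM for 24 h, then lysed. Rb S807/811 phosphorylation read by HTRF (665/620 nm ratio) after 4 h detection at room temperature; data normalized to DMSO and IC50 from four-parameter logistic fit.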
row,SMILES,IC50
1,"Cn1nc(N2CCC(=O)NC2=O)c2ccc(C3CCN(C[C@@H]4CCN(c5cccc(S(=O)(=O)N6CCC(Nc7ncc(Cl)cn7)CC6)c5)C4)CC3)cc21 [Example 135, (S)-1-(6-(1-((1-(3-((4-((5-chloropyrimidin-2-yl)amino)piperidin-1-yl)sulfonyl)phenyl)-pyrrolidin-3-yl)methyl)piperidin-4-yl)-1-methyl-1H-indazol-3-yl)dihydropyrimidine-2,4(1H,3H)-dione]",100 to 500 nM
2,"Cn1nc(N2CCC(=O)NC2=O)c2ccc(C3CCN(Cc4cccc(S(=O)(=O)N5CCC(Nc6ncc(C(F)(F)F)cn6)CC5)c4)CC3(F)F)cc21 (stereo not drawn) [Example 3, 1-(6-(3,3-difluoro-1-(3-((4-((5-(trifluoromethyl)pyrimidin-2-yl)amino)-piperidin-1-yl)sulfonyl)benzyl)-piperidin-4-yl)-1-methyl-1H-indazol-3-yl)dihydropyrimidine-2,4(1H,3H)-dione]",100 to 500 nM
3,"Cn1nc(N2CCC(=O)NC2=O)c2ccc(N3CCC(NCc4cccc(S(=O)(=O)N5CCC(Nc6ncc(Cl)cn6)CC5)c4)CC3)cc21 [Example 84, 1-(6-(4-((3-((4-((5-chloropyrimidin-2-yl)amino)piperidin-1-yl)sulfonyl)benzyl)-amino)piperidin-1-yl)-1-methyl-1H-indazol-3-yl)dihydropyrimidine-2,4(1H,3H)-dione]",> 2500 nM
4,"Cn1nc(N2CCC(=O)NC2=O)c2ccc(C3CCN(Cc4ccc(S(=O)(=O)N5CCC(Nc6ncc(OC(F)F)cn6)CC5)cc4)CC3)c(F)c21 [Example 242, 1-(6-(1-(4-((4-((5-(difluoromethoxy)pyrimidin-2-yl)amino)piperidin-1-yl)sulfonyl)benzyl)piperidin-4-yl)-7-fluoro-1-methyl-1H-indazol-3-yl)dihydropyrimidine-2,4(1H,3H)-dione]",500 to 2500 nM
5,"Cn1nc(N2CCC(=O)NC2=O)c2ccc(C3CCN(CC4CCN(c5cc(S(=O)(=O)N6CCC(Nc7ncc(C(F)(F)F)cn7)CC6)ccc5F)CC4)CC3)cc21 [Example 142, 1-(6-(1-((1-(2-fluoro-5-((4-((5-(trifluoro-methyl)pyrimidin-2-yl)amino)piperidin-1-yl)sulfonyl)phenyl)piperidin-4-yl)methyl)-piperidin-4-yl)-1-methyl-1H-indazol-3-yl)dihydropyrimidine-2,4(1H,3H)-dione]",1 to 100 nM
6,"Cn1nc(N2CCC(=O)NC2=O)c2ccc(N3CCN(Cc4cccc(S(=O)(=O)N5CCC(Nc6ncc(C(F)(F)F)cn6)CC5)c4)CC3)cc21 [Example 12, 1-(1-methyl-6-(4-(3-((4-((5-(trifluoro-methyl)pyrimidin-2-yl)amino)piperidin-1-yl)sulfonyl)benzyl)piperazin-1-yl)-1H-indazol-3-yl)dihydropyrimidine-2,4(1H,3H)-dione]",100 to 500 nM
7,"O=C1CCC(Nc2ccc(N3CCN(Cc4cccc(S(=O)(=O)N5CCC(Nc6ncc(C(F)(F)F)cn6)CC5)c4)CC3)cc2)C(=O)N1 (stereo not drawn) [Example 78, 3-((4-(4-(3-((4-((5-(trifluoromethyl)-pyrimidin-2-yl)amino)piperidin-1-yl)sulfonyl)benzyl)piperazin-1-yl)phenyl)amino) piperidine-2,6-dione]",100 to 500 nM
8,"CCOC(=O)C1(CN2CCC(c3ccc4c(N5CCC(=O)NC5=O)nn(C)c4c3)CC2)CCN(c2cccc(S(=O)(=O)N3CCC(Nc4ncc(Cl)cn4)CC3)c2)CC1 [Example 141, ethyl 1-(3-((4-((5-chloropyrimidin-2-yl)amino)piperidin-1-yl)sulfonyl)phenyl)-4-((4-(3-(2,4-dioxotetrahydropyrimidin-1(2H)-yl)-1-methyl-1H-indazol-6-yl)piperidin-1-yl)methyl)piperidine-4-carboxylate]",500 to 2500 nM
9,"Cn1nc(N2CCC(=O)NC2=O)c2ccc(N3CCC(NCc4cccc(S(=O)(=O)N5CCC(Nc6ncc(C(F)(F)F)cn6)CC5)c4)CC3)cc21 [Example 85, 1-(1-methyl-6-(4-((3-((4-((5-(trifluoro-methyl)pyrimidin-2-yl)amino)piperidin-1-yl)sulfonyl)benzyl)amino)piperidin-1-yl)-1H-indazol-3-yl)dihydropyrimidine-2,4(1H,3H)-dione]",500 to 2500 nM
